Columns and labels:
Liver microsome [1] = experiment: Intrinsic clearance in human liver microsomes incubated for 5 mins prior to UDPGA addition measured after 90 mins; assay type: ADME; conditions: 1.5 h
[2] = target: T1, UDP-glucuronosyltransferase 1A10 (Homo sapiens, UniProt Q9HAW8); experiment: Drug metabolism assessed as human recombinant UGT1A10-mediated irilone-O-4'-monoglucuronide formation incubated for 5 mins prior to UDPGA addition measured after 90 mins by HPLC-DAD analysis; assay type: ADME; conditions: recombinant enzyme, 1.5 h
T1 sequence (Q9HAW8 whole entry): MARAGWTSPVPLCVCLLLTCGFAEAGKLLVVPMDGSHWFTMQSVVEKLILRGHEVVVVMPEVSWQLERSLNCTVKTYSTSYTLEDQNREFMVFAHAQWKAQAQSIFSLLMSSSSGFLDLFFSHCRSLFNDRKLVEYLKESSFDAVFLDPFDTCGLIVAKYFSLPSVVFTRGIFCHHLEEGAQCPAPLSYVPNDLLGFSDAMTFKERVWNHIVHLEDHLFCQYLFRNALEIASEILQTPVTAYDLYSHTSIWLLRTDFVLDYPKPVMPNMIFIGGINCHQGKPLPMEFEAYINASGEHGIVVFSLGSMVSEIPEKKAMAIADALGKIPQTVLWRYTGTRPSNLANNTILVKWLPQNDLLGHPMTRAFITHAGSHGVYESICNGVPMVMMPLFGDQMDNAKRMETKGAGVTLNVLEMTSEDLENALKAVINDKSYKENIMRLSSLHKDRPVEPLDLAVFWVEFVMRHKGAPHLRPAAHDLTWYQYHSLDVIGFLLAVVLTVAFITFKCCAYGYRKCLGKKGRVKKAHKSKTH

[3] = target: T2, UDP-glucuronosyltransferase 1A1 (Homo sapiens, UniProt P22309); experiment: Drug metabolism assessed as human recombinant UGT1A1-mediated irilone-O-5-monoglucuronide formation at 25 uM incubated for 5 mins prior to UDPGA addition measured after 90 mins by HPLC-DAD analysis; assay type: ADME; conditions: recombinant enzyme, 1.5 h
T2 sequence (P22309 whole entry): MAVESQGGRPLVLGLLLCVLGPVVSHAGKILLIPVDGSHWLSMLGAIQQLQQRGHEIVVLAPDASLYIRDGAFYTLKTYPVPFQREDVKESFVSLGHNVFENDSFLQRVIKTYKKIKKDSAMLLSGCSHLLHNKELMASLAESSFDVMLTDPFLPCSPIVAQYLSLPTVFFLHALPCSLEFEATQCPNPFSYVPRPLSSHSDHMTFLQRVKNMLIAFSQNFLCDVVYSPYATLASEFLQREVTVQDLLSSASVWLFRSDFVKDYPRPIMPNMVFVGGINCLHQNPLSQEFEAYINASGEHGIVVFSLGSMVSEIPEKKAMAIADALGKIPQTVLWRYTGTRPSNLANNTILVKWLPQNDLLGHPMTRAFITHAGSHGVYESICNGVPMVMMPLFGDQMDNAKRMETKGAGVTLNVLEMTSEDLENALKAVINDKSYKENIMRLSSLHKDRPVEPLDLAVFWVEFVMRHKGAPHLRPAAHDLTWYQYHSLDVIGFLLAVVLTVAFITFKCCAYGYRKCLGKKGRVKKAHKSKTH

[4] = Intrinsic clearance in pig liver microsomes incubated for 5 mins prior to UDPGA addition measured after 90 mins; assay type: ADME, Sus scrofa; conditions: 1.5 h
Liver microsome [5] = experiment: Drug metabolism in human liver microsomes assessed as IRI-O-4'-monoglucuronide formation incubated for 5 mins prior to UDPGA addition measured after 90 mins by Eadie-Hoftsee plot analysis; assay type: ADME; conditions: 1.5 h
[6] = target: T1, UDP-glucuronosyltransferase 1A10; experiment: Substrate inhibition of human recombinant UGT1A10 assessed as IRI-O-5-monoglucuronide formation incubated for 5 mins prior to UDPGA addition measured after 90 mins by Eadie-Hoftsee plot analysis; assay type: ADME
Liver microsome [7] = experiment: Drug metabolism in Sprague-Dawley rat liver microsomes assessed as IRI-O-5-monoglucuronide formation incubated for 5 mins prior to UDPGA addition measured after 90 mins by Eadie-Hoftsee plot analysis; assay type: ADME; conditions: 1.5 h
[8] = Drug metabolism in pig liver microsomes assessed as substrate inhibition of IRI-O-4'-monoglucuronide formation incubated for 5 mins prior to UDPGA addition measured after 90 mins by Eadie-Hoftsee plot analysis; assay type: ADME, Sus scrofa
[9] = target: T2, UDP-glucuronosyltransferase 1A1; experiment: Drug metabolism assessed as human recombinant UGT1A1-mediated irilone-O-4'-monoglucuronide formation at 25 uM incubated for 5 mins prior to UDPGA addition measured after 90 mins by HPLC-DAD analysis; assay type: ADME; conditions: recombinant enzyme, 1.5 h
[10] = target: T2, UDP-glucuronosyltransferase 1A1; experiment: Substrate inhibition of human recombinant UGT1A1 assessed as IRI-O-4'-monoglucuronide formation incubated for 5 mins prior to UDPGA addition measured after 90 mins by Eadie-Hoftsee plot analysis; assay type: ADME

## O=c1c(-c2ccc(O)cc2)coc2cc3c(c(O)c12)OCO3
Liver microsome [1]
  CLH: 48500 µL/min/mg
[2]
  Drug metabolism: metabolite_detected
[3]
  Drug metabolism: metabolite_detected
[4]
  CLH: 71800 µL/min/mg
Liver microsome [5]
  Km: 64.7 µM
  Vmax: 0.34 nmol/mg/min
[6]
  Ki: Not Active
Liver microsome [7]
  Km: 34 µM
  Vmax: 1.37 nmol/mg/min
[8]
  Ki: 49.1 µM
[9]
  Drug metabolism: metabolite_detected
[10]
  Ki: 14.1 µM

Source: ChEMBL document CHEMBL3525955, “Glucuronidation of the red clover isoflavone irilone by liver microsomes from different species and human UDP-glucuronosyltransferases” (Drug Metab Dispos, 2011)
